Experimental data from patent US20170327598A1, “SINGLE DOMAIN ANTIBODIES DIRECTED AGAINST INTRACELLULAR ANTIGENS” (SINGH MOLECULAR MEDICINE, LLC, priority 2014, published 2017).
Where “and” joins values, the source holds several entries; their conditions need not be identical. Identical values can stand only once. Like-named read-outs stand apart in the source and are kept apart here.

Tests used:
PANC-1 cells [1] = assay: Internalization of sdAb, anti-His tag staining, PANC-1; format: cell-based; settings: 18 hours
Experimental: (§1) An anti-HIV-1 Reverse Transcriptase (RT) sdAb was used as a negative control.
(§2) The slides were incubated for 18 hours after sdAb addition. The chambers were briefly rinsed with media and fixed in ice-cold methanol for 5-10 min. The chambers were then dried and stained with a fluorescent anti-His tag antibody (1:200)(Novus Biologicals, Littleton, Colo.) for 45 min at room temperature. The slides were rinsed in PBS for 5 minutes and mounted.

[2] = test system: GloResponse SIE-luc2P/HEK 293 cells; assay: BCA protein concentration of reporter cells run in parallel; format: cell-based; settings: highest concentration
STAT5 = assay: Biacore 3000, sdAb immobilized, STAT5 analyte (Example 23); format: binding
SJSA cells = assay: Anti-proliferative effect, SJSA cells; format: cell-based; settings: for Absorbance ± S.E.: 72 hr
DU145 tumor xenograft = assay: DU145 xenograft study, Example 11
[3] = test system: PANC-1 human pancreatic cancer xenograft
BT474 cells = assay: MTT proliferation assay, BT474; format: cell-based, human; settings: BT474, 72 hours
human STAT3 = assay: Biacore 3000 protein binding, STAT3 ligand immobilized (Example 22); settings: sdAb as analyte
MCF-7 cells = assay: MTT proliferation assay, MCF-7; format: cell-based, human; settings: MCF-7, 72 hours
[4] = test system: rabbit anti-llama biotinylated antibody or his-probe (H-3) biotin labeled antibody; assay: ELISA with sdAbs coated, binding of secondary antibodies (Experiments 2 and 3)
Experimental: Two assays (Experiment 2 and 3) were performed to assess the binding of the secondary antibody to the sdAbs. A similar ELISA method was utilized except the sdAbs were directly coated onto the assay plate at a concentration of 1 μg/mL. Plates were incubated overnight at 2-8° C. After the incubation, plates were washed (3×) and blocked (3% BSA in PBS) for at least one hour at room temperature.
After removal of the blocking buffer and washing (3×), the secondary antibodies, either rabbit anti-llama biotinylated antibody or his-probe (H-3) biotin labeled antibody at was then added at a 1:5,000 dilution to each well and incubated with shaking for at least one hour at room temperature. Only the rabbit anti-llama biotinylated antibody was used in Experiment 2. Both antibodies were run in parallel in Experiment 3.
After the incubation with secondary antibody, the plates were again washed (3×) and HRP at a 1:50,000 dilution was added to each well. Plates were incubated with shaking for at least one hour at room temperature. One last wash (3×) was performed followed by the addition of TMB substrate and plates were incubated at room temperature. For the anti-llama biotinylated antibody stop solution was added to halt the colorimetric reaction at 10 minutes. The his-probe (H-3) biotin labeled antibody was allowed to incubate for 20 minutes prior to stopping. The absorbance at 450 nm was measured as before.

PANC-1 cells [5] = assay: MTT proliferation assay, PANC-1; format: cell-based, human; settings: for Mean Absorbance (570 nM) ± S.E.: single experiments 1-3, listed as B.VHH13
MDA-MB 231 cells = assay: Internalization of sdAb, anti-His tag staining, MDA-MB 231; format: cell-based; settings: 18 hours
Experimental: as §1, §2

MDA-MB-468 cells = assay: MTT proliferation assay, MDA-MB-468; format: cell-based, human; settings: MDA-MB-468, 72 hours
[6] = test system: MDA-MB-231 human breast cancer xenograft; settings: for Individual Tumor Measurements: listed as anti-STAT3 bacterial VHH13
human KRAS = assay: Biacore 3000 protein binding, KRAS ligand immobilized (Example 22); settings: sdAb as analyte
U87 mg cells = assay: Anti-proliferative effect, U87 mg cells; format: cell-based; settings: for Absorbance ± S.E. / % Inhibition: 72 hr

Substance: Anti-STAT3 VHH13: anti-STAT3 single domain antibody, SEQ ID NO:3; bacterially produced form referred to as SBT-100
- internalization, anti-His tag staining (PANC-1 cells [1]): positive cytoplasmic staining
- decrease in protein [2]: approximately 2 fold
- binding of STAT5 (STAT5; Biacore, sdAb immobilized): bound
- Result (STAT5; sdAb immobilized (STAT5-31 440 RU, anti-KRAS 140 RU, VHH13 1000 RU), STAT5 protein analyte 500 nM): Binding
- Absorbance ± S.E. (SJSA cells; 25 μg/ml): 1.36 ± 0.09
- Absorbance ± S.E. (SJSA cells; 50 μg/ml): 0.90 ± 0.04
- Absorbance ± S.E. (SJSA cells; 100 μg/ml): 0.27 ± 0.01
- Absorbance ± S.E. (SJSA cells; 200 μg/ml): 0.26 ± 0.01
- IC50 (SJSA cells; SJSA cells): 51 µg/mL
- % treatment/control (DU145 tumor xenograft; 5 mg/kg bw IP BIDx14): 74.8%
- tumor doubling time (DU145 tumor xenograft; 5 mg/kg bw IP BIDx14): 18.19 days
- mean tumor growth inhibition (DU145 tumor xenograft; 5 mg/kg bw IP BIDx14, end of the study): 26.6%
- mean tumor size (±SE) (DU145 tumor xenograft; 5 mg/kg bw IP BIDx14, last day of dosing (Day 14)): 364.14±51.64
- mean tumor size (±S.E.) (DU145 tumor xenograft; 5 mg/kg bw IP BIDx14, termination (day 28)): 601.83±131.51
- growth inhibition ([3]; 500 μg/kg bw IP QDx14): no significant growth inhibition
- tumor doubling time ([3]; 500 μg/kg bw IP QDx14): 23.02 days
- mean tumor size (±SE) ([3]; treatment group, day 14 of dosing): 318.74 ± 29.76
- Mean Abs (BT474 cells; 0.39 μg/ml): 0.322
- Mean Abs (BT474 cells; 3.13 μg/ml): 0.446
- Mean Abs (BT474 cells; 6.25 μg/ml): 0.469
- Mean Abs (BT474 cells; 25 μg/ml): 0.256
- Mean Abs (BT474 cells; 50 μg/ml): 0.145
- Mean Abs (BT474 cells; 100 μg/ml): 0.046
- Mean Abs (BT474 cells; 200 μg/ml): 0.040
- binding to STAT3 ligand (human STAT3): bound
- Mean Abs (MCF-7 cells; 0.39 μg/ml): 0.818
- Mean Abs (MCF-7 cells; 3.13 μg/ml): 0.689
- Mean Abs (MCF-7 cells; 6.25 μg/ml): 0.435
- % Inhibition (MCF-7 cells; 25 μg/ml): 62.1%
- Mean Abs (MCF-7 cells; 25 μg/ml): 0.212
- % Inhibition (MCF-7 cells; 50 μg/ml): 89.9%
- Mean Abs (MCF-7 cells; 50 μg/ml): 0.057
- % Inhibition (MCF-7 cells; 100 μg/ml): 93.2%
- Mean Abs (MCF-7 cells; 100 μg/ml): 0.038
- % Inhibition (MCF-7 cells; 200 μg/ml): 92.9%
- Mean Abs (MCF-7 cells; 200 μg/ml): 0.040
- OD450 Values ([4]; His-probe (H-3), Experiment 3, stored 1:100 dilution of sdAb): 0.360
- OD450 Values ([4]; Rabbit anti-Llama Secondary Antibody, Experiment 2, sdAb coated at 1 μg/mL): 1.313
- OD450 Values ([4]; Rabbit anti-Llama Secondary Antibody, Experiment 3, stored 1:100 dilution of sdAb): 0.363
- Mean Absorbance (570 nM) ± S.E., Overall Mean (PANC-1 cells [5]; PANC-1, Day 3, 10.0 μg/ml): 0.472 ± 0.020
- Mean Absorbance (570 nM) ± S.E. (PANC-1 cells [5]; PANC-1, Day 3, 10.0 μg/ml): 0.432 ± 0.015 and 0.491 ± 0.087 and 0.493 ± 0.029
- Mean Absorbance (570 nM) ± S.E., Overall Mean (PANC-1 cells [5]; PANC-1, Day 3, 100 μg/ml): 0.214 ± 0.047
- Mean Absorbance (570 nM) ± S.E. (PANC-1 cells [5]; PANC-1, Day 3, 100 μg/ml): 0.307 ± 0.012 and 0.169 ± 0.094 and 0.166 ± 0.028
- Mean Absorbance (570 nM) ± S.E., Overall Mean (PANC-1 cells [5]; PANC-1, Day 5, 10.0 μg/ml): 0.643 ± 0.126
- Mean Absorbance (570 nM) ± S.E., Overall Mean (PANC-1 cells [5]; PANC-1, Day 5, 100 μg/ml): 0.219 ± 0.012
- Mean Absorbance (570 nM) ± S.E. (PANC-1 cells [5]; PANC-1, Day 5, 100 μg/ml): 0.243 ± 0.024 and 0.211 ± 0.006 and 0.203 ± 0.013
- internalization, anti-His tag staining (MDA-MB 231 cells): positive cytoplasmic staining
- Mean Abs (MDA-MB-468 cells; 0.39 μg/ml): 0.311
- % Inhibition (MDA-MB-468 cells; 3.13 μg/ml): 11.9%
- Mean Abs (MDA-MB-468 cells; 3.13 μg/ml): 0.223
- % Inhibition (MDA-MB-468 cells; 6.25 μg/ml): 9.1%
- Mean Abs (MDA-MB-468 cells; 6.25 μg/ml): 0.230
- % Inhibition (MDA-MB-468 cells; 25 μg/ml): 73.5%
- Mean Abs (MDA-MB-468 cells; 25 μg/ml): 0.067
- % Inhibition (MDA-MB-468 cells; 50 μg/ml): 83.4%
- Mean Abs (MDA-MB-468 cells; 50 μg/ml): 0.042
- % Inhibition (MDA-MB-468 cells; 100 μg/ml): 85.0%
- Mean Abs (MDA-MB-468 cells; 100 μg/ml): 0.038
- % Inhibition (MDA-MB-468 cells; 200 μg/ml): 84.4%
- Mean Abs (MDA-MB-468 cells; 200 μg/ml): 0.040
- % mean tumor growth inhibition ([6]; 500 μg/kg bw IP QDx14): 33.64%
- tumor doubling time ([6]; 500 μg/kg bw IP QDx14): 61.06 days
- mean tumor size (±SE) ([6]; 500 μg/kg bw IP QDx14, day 14 of dosing): 118.86±15.94
- Individual Tumor Measurements ([6]; Group 2, 500 μg/kg bw IP QDx14, single animals, Day 1): 123.94 mm^3 and 85.93 mm^3 and 147.34 mm^3 and 115.91 mm^3 and 73.23 mm^3
- Tumor Measurements, group Mean ([6]; Group 2, Day 1): 102.61 mm^3
- Tumor Measurements, group Mean ([6]; Group 2, Day 6): 101.16 mm^3
- Tumor Measurements, group Mean ([6]; Group 2, Day 9): 112.44 mm^3
- Tumor Measurements, group Mean ([6]; Group 2, Day 12): 112.92 mm^3
- Tumor Measurements, group Mean ([6]; Group 2, Day 16): 118.86 mm^3
- Tumor Measurements, group Mean ([6]; Group 2, Day 20): 128.49 mm^3
- Individual Tumor Measurements ([6]; Group 2, single animals, Day 6): 114.91 mm^3 and 101.06 mm^3 and 148.72 mm^3 and 103.64 mm^3 and 82.59 mm^3
- Individual Tumor Measurements ([6]; Group 2, single animals, Day 9): 129.22 mm^3 and 112.60 mm^3 and 169.69 mm^3 and 108.37 mm^3 and 110.13 mm^3
- Individual Tumor Measurements ([6]; Group 2, single animals, Day 12): 176.04 mm^3 and 112.24 mm^3 and 185.08 mm^3 and 141.21 mm^3 and 91.22 mm^3
- Individual Tumor Measurements ([6]; Group 2, single animals, Day 16): 170.09 mm^3 and 139.56 mm^3 and 170.07 mm^3 and 144.51 mm^3
- Individual Tumor Measurements ([6]; Group 2, single animals, Day 20): 162.98 mm^3 and 96.43 mm^3 and 256.71 mm^3 and 119.42 mm^3
- binding to KRAS ligand (human KRAS): bound
- Absorbance ± S.E. (U87 mg cells; 25 μg/ml): 0.687 ± 0.03
- % Inhibition (U87 mg cells; 50 μg/ml): 18%
- Absorbance ± S.E. (U87 mg cells; 50 μg/ml): 0.456 ± 0.01
- % Inhibition (U87 mg cells; 100 μg/ml): 51%
- Absorbance ± S.E. (U87 mg cells; 100 μg/ml): 0.271 ± 0.02
- % Inhibition (U87 mg cells; 200 μg/ml): 62%
- Absorbance ± S.E. (U87 mg cells; 200 μg/ml): 0.211 ± 0.03
- IC50 (U87 mg cells; U87 mg cells): 65 µg/mL
- Absorbance ± S.E. (U87 mg cells; […]): 0.702 ± 0.04
